This note sets out measurements from US10179770B2, “Quinolines derivatives as novel anticancer agents” (GENOSCIENCE PHARMA, priority 2013, dated 2019).

Data set [1] concerns LNCaP. In words: CellTiter-Glo cell viability assay (example 57). It is filed as cell-based. To be noted: Homo sapiens; LNCaP (Prostate); Cell Titer-Glo; 72 h. On the procedure: (§1) The human breast cancer cell line SkBr3 and the human metastatic prostate carcinoma cell line LnCAP were cultured in Dulbecco's modified Eagle's medium (DMEM) supplemented with 10% fetal bovine serum (FBS) and 0.1% sodium pyruvate. The human myelocytic cell line U937 and NB4 were maintained in RPMI medium 1640 1× (Gibco 21875-034) supplemented with 10 % Fetal Bovine Serum (FBS, Eurobio S39130-0808) Kasumi and SKM-1 were maintained in RPMI medium 1640 1× (Gibco 21875-034) supplemented with 20 % Fetal Bovine Serum (FBS, Eurobio S39130-0808), HL60 was maintained in Iscove's modified Dulbecco's medium 1× (IMDM, Gibco 21890) supplemented with 20% Fetal Bovine Serum (FBS, Eurobio S39130-0808), cell line was maintained in MEM alpha medium (Gibco 22561-021) supplemented with 10% FBS at 37° C. with 5% CO2. Cell outgrowth was measured using the CellTiter-Glo luminescent cell viability assay as described by the manufacturer (Promega, Ref G7571 Madison, Wis., USA) using a FLUOstar optima luminometer (BMG Labtech, Ortenberg, Germany).
(§2) Briefly, for adherent cells, 10^4 cells were plated onto 96-well plates (white with clear bottom (3610, Corning Costar) in 100 μL of media per well and were allowed to grow overnight before the assay. For cells growing in suspension, 10^4 cells were plated onto 96-well plates immediately before the assay. […] Vehicle (DMSO) was used as a control, and all compounds were tested in a constant percentage of DMSO (1%). After addition of 50 μL of CellTiter GLO, luminescence was measured using a Centro luminometer (Berthold). EC50 values were determined as the dose of compound required to reduce luminescent values to 50% of the signal obtained for untreated cell cultures. All experiments were done in duplicate and repeated two independent times.
A general note: Cellular ATP, detected with luciferase, serves as a proxy for viable cell number.

Data set [2] has as its system SkBr3. In words: CellTiter-Glo cell viability assay (example 57). It is filed as cell-based. To be noted: Homo sapiens, SK-BR-3; SkBr3 (Breast); Cell Titer-Glo; 72 h. On the procedure:
as §1, §2

The test system of data set [3] is HepG2. In words: CellTiter-Glo cell viability assay (example 57). It is filed as cell-based. To be noted: Homo sapiens; HepG2 (Liver); Cell Titer-Glo; 72 h. On the procedure: as §1, §2
The test system of data set [4] is BxPC-3. In words: Cell viability assay, pancreatic cancer cell lines. It is filed as cell-based. As to conditions: Homo sapiens; BxPC-3 (Pancreas); 48 h. On the procedure:
MiaPaCa-2, Panc-1 cells were grown in Dulbecco's modified eagle's medium (DMEM) (Gibco) supplemented with 10% fetal bovine serum (FBS), while BxPC-3, Capan-1, Capan-2 cells were grown in Roswell Park Memorial Institute 1640 (RPMI 1640) (Gibco) supplemented with 10% FBS. Gemcitabine (Gemzar) was purchased from Lilly France S.A.S (Suresnes, France). (3-(4,5-dimethylthiazol-2-yl)-2,5diphenyltetrazolium bromide, MTT) was purchased from Sigma-Aldrich.
BxPC-3, MiaPaCa-2, Panc-1 cells were seeded into a 96-well plate at 10,000 10,000 15,000 cells per well respectively, while Capan-1 and Capan-2 cells at 20,000 cells per well and allowed to adhere overnight. Then the culture medium was removed and replaced with fresh media alone as control or containing various concentrations of different compounds. In dose-dependent assay, the cells were treated with compound XIX-3 at the concentration varying from 0.1 μM to 100 μM while the cells being cultured by fresh media alone were used as control. After 48 h treatment, the number of remained viable cells was determined by (3-(4,5-dimethylthiazol-2-yl)-2,5diphenyltetrazolium bromide, MTT) colorimetric assay (see Sigma Aldrich protocol and Riss T. L. et al. Cell Viability Assays in Assay Guidance Manual 2013 ppl.). All experiments were done in duplicate and repeated two independent times.

Data set [5] relates to HT29. Kind of data set: CellTiter-Glo cell viability assay (example 57). In kind it is cell-based. As to conditions: Homo sapiens, HT-29; HT29 (Colon); Cell Titer-Glo; 72 h.
Data set [6] deals with U937. In words: CellTiter-Glo cell viability assay (example 57). In kind it is cell-based. As to conditions: Homo sapiens, U-937; U937 (Leukemia); Cell Titer-Glo; 72 h. On the procedure: as §1, §2
Data set [7] relates to KG-1. In words: CellTiter-Glo cell viability assay (example 57). To be noted: Homo sapiens; KG-1 (Leukemia); Cell Titer-Glo; 72 h. In kind it is cell-based. On the procedure: as §1, §2
Data set [8] relates to MOLM-14. In words: CellTiter-Glo cell viability assay (example 57). To be noted: Homo sapiens; MOLM-14 (Leukemia); Cell Titer-Glo; 72 h. In kind it is cell-based. On the procedure: as §1, §2
Data set [9] has as its system NB4. Kind of data set: CellTiter-Glo cell viability assay (example 57). In kind it is cell-based. To be noted: Homo sapiens, NB-4; NB4 (Leukemia); Cell Titer-Glo; 72 h. On the procedure: as §1, §2
Data set [10] has as its system HL60. Kind of data set: CellTiter-Glo cell viability assay (example 57). It is filed as cell-based. As to conditions: Homo sapiens, HL-60; HL60 (Leukemia); Cell Titer-Glo; 72 h. On the procedure: as §1, §2
Data set [11] deals with SKM-1. In words: CellTiter-Glo cell viability assay (example 57). To be noted: Homo sapiens; SKM-1 (Leukemia); Cell Titer-Glo; 72 h. It is filed as cell-based. On the procedure:
as §1, §2

The test system of data set [12] is Kasumi-1. In words: CellTiter-Glo cell viability assay (example 57). As to conditions: Homo sapiens; Kasumi-1 (Leukemia); Cell Titer-Glo; 72 h. It is filed as cell-based. On the procedure:
as §1, §2

Data set [13] deals with MOLM-14 cell line. In words: Growth inhibition assay of MOLM-14 (CellTiter-Glo, example 63). To be noted: Homo sapiens, 48 h, method of example 63. In kind it is cell-based. On the procedure:
MOLM-14 cell line was cultured in RPMI-1640 Medium supplemented with 10% v/v Fetal Bovine Serum (FBS), 1% Penicillin-Streptomycin and maintained at 37° C. with 5% CO2. 10,000 cells were plated onto 96-well plates immediately before the assay.
Each compound was added at different concentrations (combinations of six concentrations) to each well, and cell cultures were incubated for 48 h. Vehicle (H2O) was used as a control, and all compounds were tested in a constant percentage of vehicle. Cell outgrowth was measured using the CellTiter-Glo luminescent cell viability assay as described by the manufacturer (Promega, Ref G7571 Madison, Wis., USA) using a Centro (Berthold, France) plate reader.
In each experiment, each point represents the average of triplicates in cell culture.
The experimental data are analyzed using a computer program, Graphpad Prism (GraphPad Software, Inc. La Jolla, Calif.) and EC50 values were determined as the dose of compound required to reduce absorbance values to 50% of the signal obtained for vehicle treated cell cultures.

Data set [14] concerns ALDH+ cancer stem cells (CSC) in MOLM-14 cell line. In words: Aldefluor kit assay, ALDH+ compartment analysis. It is filed as cell-based, human. As to conditions: for Aldefluor™ positive CSCs (% of control): 72 h; for Aldefluor positive CSCs (% of control): MOLM-14 cell line, 72 h incubation. An excerpt: Analysis of the of aldehyde dehydrogenase (ALDH) compartment and high activity level of aldehyde dehydrogenase activity (ALDH+) was used to detect tumor initiating cells (cancer stem cells, CSC) population. The Aldefluor™ kit assay (StemCell Technologies) allowed to assess the activity of drugs on CSC cells like in aa MOLM-14 acute myeloid leukemia cell line population. The Aldefluor™ kit assay was used according to the procedure described by the manufacturer. Briefly, MOLM-14 cell line was cultured in RPMI-1640 Medium supplemented with 10% v/v Fetal Bovine Serum (FBS), 1% Penicillin-Streptomycin and maintained at 37° C. with 5% CO2. 5·10^5 cells were used in this assay. Each compound was added at different concentrations (see table 13 and 14), and cell cultures were incubated for 72 h. Vehicle (H2O) was used as a control, and all compounds were tested in a constant percentage of vehicle. Cells obtained from cell culture were incubated for 45 minutes at 37° C. with Aldefluor™ buffer assay containing the Bodipy™-aminoacetaldehyde (BAAA), a fluorescent ALDH aldehyde substrate. ALDH converts the fluorescent substrate BAAA to the Bodipy™-aminoacetic acid (BAA) which is retained in the cell. An active efflux inhibitor is present in the Adelfluor™ assay buffer in order to avoid the active efflux from the cell of the substrate product ALDH dependent converted BAA. The fluorescent signal is directly proportional to the ALDH activity in the cells and is measured by flow cytometry. A negative control is used to measure the background fluorescence level. For such purpose, 4-(N,N-diethylamino)-benzaldehyde (DEAB) was used as selective ALDH inhibitor. A viability cell count was performed using LIVE/DEAD® Fixable Far Red Dead Cell Stain Kit (Invitrogen). The experimental data are analyzed using a computer program, Graphpad Prism (GraphPad Software, Inc. La Jolla, Calif.) and EC50 values were determined as the dose of compound required to reduce absorbance values to 50% of the signal obtained for vehicle treated cell cultures.

Data set [15] can be described thus: Encapsulation efficiency of XIX-2 in PLGA-PLGAPEG nanoparticules (HPLC). It is filed as physicochemical. On the procedure:
According to the general procedure described elsewhere (see for example Kumar, K. et al. J. Controlled Release 2013 (171) pp 208-215 and Danhier, F. et al. Int. J. Pharm. 2010 (392) pp 20-28) a nanoparticule PLGA-PLGAPEG (70/30, w/w) formulation of compound XIX-2 was prepared. Briefly, XIX-2 loaded PLGA (L:G 50:50, Mw 7,000-17,000, acid terminated) and PLGA-PEG (L:G 50:50, 15% of PEG, PLGA Mw 28,000; PEG Mw 5,000) nanoparticles were prepared by O/W emulsion-solvent evaporation technique. 35 mg of PLGA polymer and 15 mg of PLGA-PEG polymer was dissolved in 1 ml of a solution of XIX-2 in dichloromethane (10 mg/ml) and vortexed to obtain a uniform PLGA-PLGAPEG solution. Then, 2 ml of a 1% sodium cholate aqueous solution was added and the resulting biphasic system was sonicated (Branson sonifier, USA) at 70 W for 15 s. This emulsion was added dropwise to 100 ml of a 1% sodium cholate aqueous solution at 37° C. and stirred at 600 rpm for 1 h. The nanoparticle suspension was then washed twice in distilled water by centrifugation (Avanti-JE centrifuge, Beckman coulter, USA) for 60 min at 10,000 t·min^−1 and 4° C. Supernatants were collected to evaluate encapsulation efficiency of XIX-2. Empty nanoparticles were prepared with the same procedure except the addition of XIX-2 during the preparation of the formulation. The particles can be stored in solution at +4° C. or then freeze dried (Labconco, USA) and stored at 4° C. until further use.
Encapsulation efficiency estimated the amount of XIX-2 encapsulated in PLGA-PLGAPEG nanoparticules. Supernatants were used to measure the non-encapsulated XIX-2. Nanoparticules were dissolved in 1 ml of mobile phase to evaluate the encapsulated XIX-2. An HPLC system (Waters Breeze) with a diode array detector and multiple wavelength detector was used for the quantification of XIX-2 in supernatants and nanoparticles. […]
The coefficients of variation (CV) for intra- and inter-assay measurements were within 5%. The encapsulation efficiency of XIX-2 is given by [XIX-2 used−XIX-2 non-encapsulated)/XIX-2 used]×100 and XIX-2 recovery was calculated.

Molecules are shown by their SMILES.

Usually EC50 stands for the midpoint of the concentration-response curve. Take `Nc1ccn([C@@H]2O[C@H](CO)[C@@H](O)C2(F)F)c(=O)n1` [Gemcitabine, gemcitabine]: the EC50 in data set [1] was determined as 40 nM; in [2], 200 nM; in [3], 20 nM; in data set [4], 20 nM; in [5], 200 nM.
With `Nc1ccn([C@@H]2O[C@H](CO)[C@@H](O)[C@@H]2O)c(=O)n1` [Cytarabine], the concentration for a half-maximal effect (EC50) in data set [6] worked out at 30 nM; in [7], 150 nM; in data set [8], 3000 nM; in data set [9] it was 20 nM; in [10], 2000 nM; in [11] it was 2000 nM. Moreover, the EC50 came to 150 nM in data set [12] and 1000 nM in data set [13]. For the same compound, the “Aldefluor™ positive CSCs (% of control)” value in data set [14] (MOLM-14, 1 μM) is reported as 130 % of control; in data set [14] (MOLM-14, 3 μM) it was 116 % of control. The “Activity against CSCs in Aldefluor™ assay (proportion of CSCs)” value in data set [14] (MOLM-14, dose dependent, Cytarabine up to 3-fold its EC50) is recorded as “not active against CSCs”. In addition, the figures for the “Aldefluor positive CSCs (% of control)” value in data set [14] (1 μM) and in [14] (3 μM) were 130 % of control and 116 % of control, respectively.
Turning to `CCN(CC)C1CCN(C(C)c2cc(-c3ccccc3)nc3ccccc23)CC1` (stereo not drawn) [XIX-2, 2-phenyl-4-{1-[4-(N,N-diethylamino)-piperidin-1-yl]-eth-1-yl}quinoline], in data set [15] (PLGA-PLGAPEG (70/30, w/w) nanoparticules, HPLC), the “Concentration of XIX-2 in nanoparticules dispersion” value turned out to be 3210 µM. Moreover, the Loading in data set [15] (PLGA-PLGAPEG nanoparticules, [XIX-2 encapsulated/PLGA-PLGAPEG used] × 100) was found to be 2.5%. This compound also gave an Encapsulation efficiency in data set [15] (PLGA-PLGAPEG nanoparticules; [XIX-2 used − XIX-2 nonencapsulated)/XIX-2 used] × 100) of 9.4%.
